Source: patent US7320967B2, “Cosmetic composition, method of cosmetic treatment and preparation of a composition for promoting the growth and/or preventing or delaying the loss of hair” (L'Oreal, priority 2002, dated 2008)
Where two headings read alike, the source gives them in different places.

Tests used:
[1] = molecular target: T1, PGFS (Homo sapiens, UniProt P42330, H5Q); assay: PGFS test (maximum reaction rate, optical density at 340 nm); assay type: biochemical; settings: for IC50: protocol of Example 3
T1 construct: GST (glutathione S-transferase, pGEX 2T) (N, cleaved yes); made in house; host or cells: E. coli BL21DE3
T1 sequence (P42330 1-323 H5Q): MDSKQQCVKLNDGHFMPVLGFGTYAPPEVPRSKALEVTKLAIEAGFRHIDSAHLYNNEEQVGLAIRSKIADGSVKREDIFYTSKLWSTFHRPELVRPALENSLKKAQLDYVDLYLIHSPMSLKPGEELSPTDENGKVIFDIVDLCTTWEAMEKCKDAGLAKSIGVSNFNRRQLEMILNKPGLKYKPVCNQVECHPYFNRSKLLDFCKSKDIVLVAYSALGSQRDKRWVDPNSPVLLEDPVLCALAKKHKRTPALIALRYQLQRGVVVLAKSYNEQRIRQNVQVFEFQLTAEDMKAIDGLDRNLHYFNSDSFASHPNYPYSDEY
Protocol: The compounds noted as 15-PGDH inhibitors are then tested for their capacity to inhibit PGF synthase. For that, the following are for example brought into contact: the enzyme PGFS at a final concentration of 25×10^−3 mg/l, its cosubstrate (β-NADPH2) and a substrate (for example phenanthrenequinone) at the concentrations conventionally used for this test as described for example by Suzuki et al. (cDNA cloning, expression and mutagenesis study of liver-type prostaglandin F synthase. J Biol Chem, 1999, 274(1): 241-248), that is to say 100 μM β-NADPH2 and 20 μM phenanthrenequinone. The maximum reaction rate is measured per unit of time at 37° C. The same reaction is carried out but adding the test compound to the medium at the start of the reaction. The maximum enzyme reaction rate with the compound is compared to that of the control with no compound, and the percentage inhibition [100−(Vmax assay×100)/Vmax control] is determined.
The enzyme obtained is at a concentration of 0.5 mg/ml and blocked at −80° C. This suspension is thawed and stored on ice.
Preparation in a brown flask (protection from light) of a 100 mM Tris buffer pH=6.5 containing 20 μM 9,10-phenanthrenequinone* (P2896, Sigma-Aldrich, L'isle D'Abeau Chesne, BP 701, 38297, Saint Quentin Fallavier) and 100 μM β-NADPH (N1630, Sigma-Aldrich, L'isle D'Abeau Chesne, BP 701, 38297, Saint Quentin Fallavier). A stock solution having a titre of 1 mM is prepared in absolute ethanol heated to 40° C., the flask is placed in an ultrasonic tank in order to facilitate the solubilization of the product.
0.950 ml of this buffer (previously heated to 37° C.) is introduced into the cuvette of a spectrophotometer (Perkin-Elmer, Lambda 2) thermostated at 37° C. whose wavelength for measurement is set at 340 nm. 0.05 ml of enzymatic suspension at 37° C. is introduced into the cuvette concomitantly with the recording (reduction in the optical density at 340 nm).
(§1) The maximum reaction rate is recorded.
(§2) The test values (molecules) are compared with the control value (with no molecule), the results are expressed as % of the control value.

[2] = molecular target: T2, 15-PGDH (Homo sapiens, UniProt P15428); assay: 15-PGDH test (maximum reaction rate, optical density at 340 nm); assay type: biochemical
T2 construct: GST (glutathione S-transferase, pGEX 4T3) (N, cleaved yes); made in house; host or cells: E. coli BL21DE3plys
T2 sequence (P15428 1-266): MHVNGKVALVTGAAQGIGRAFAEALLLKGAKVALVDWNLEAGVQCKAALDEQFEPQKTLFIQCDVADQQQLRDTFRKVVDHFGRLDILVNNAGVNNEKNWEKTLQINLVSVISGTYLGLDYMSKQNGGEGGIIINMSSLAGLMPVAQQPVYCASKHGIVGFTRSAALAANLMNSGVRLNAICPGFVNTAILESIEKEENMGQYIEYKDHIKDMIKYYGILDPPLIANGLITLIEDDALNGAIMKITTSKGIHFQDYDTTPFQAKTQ
Protocol: For that, the following are for example brought into contact: the enzyme 15-PGDH at a final concentration of 7×10^−3 mg/ml, its cosubstrate (β-NAD) and a substrate (PGE2) at the concentrations corresponding to the conditions conventionally used for this test as described for example by Cho and Tai (Inhibition of NAD-dependent 15-hydroxyprostaglandin dehydrogenase (15-PGDH) by cyclooxygenase inhibitors and chemopreventive agents. Prostaglandins, Leukotrienes and Essential Fatty Acids, 2002, 67(6): 461-465), for example 1.5 mM β-NAD and 50 μM prostaglandin E2. The rate of the reaction is measured at 37° C. for 1 minute. The same reaction is carried out, but adding the test compound to the medium at the start of the reaction. The maximum enzyme reaction rate per unit of time (Vmax) measured in the presence of the compound is compared to that of the control with no compound, and the percentage inhibition [100−(Vmax assay×100)/Vmax control] is determined.
The enzyme obtained is at the concentration of 0.3 mg/ml and is blocked at −80° C. This suspension is thawed and stored on ice.
Preparation of a 100 mM Tris buffer pH=7.4 containing 0.1 mM dithiothreitol (D5545, Sigma-Aldrich, L'isle D'Abeau Chesne, BP 701, 38297, Saint Quentin Fallavier), 1.5 mM β-NAD (N6522, Sigma-Aldrich, L'isle D'Abeau Chesne, BP 701, 38297, Saint Quentin Fallavier), 50 μM Prostaglandin E2 (P4172, Sigma-Aldrich, L'isle D'Abeau Chesne, BP 701, 38297, Saint Quentin Fallavier).
0.965 ml of this buffer (previously heated to 37° C.) is introduced into a spectrophotometer cuvette (Perkin-Elmer, Lambda 2) thermostated at 37° C., whose wavelength for measurement is set at 340 nm. 0.035 ml of enzymatic suspension at 37° C. are introduced into the cuvette concomitantly with the recording (increase in the optical density at 340 nm).
as §1, §2

[3] = test system: PGF2α secreted by U937 cells; assay: Cellular model: PGF2α secreted by PMA-differentiated, LPS-stimulated U937 cells; assay type: cell-based; settings: 5 μM; U937 + 10 nM PMA, then LPS, 6 h
Protocol: This makes it possible to evaluate the efficacy of a selective 15-PGDH inhibitor on the protection of prostaglandins in a complex biological system producing the different types of enzyme involved in the metabolism of these molecules. For example, a culture of promonocytes is used, these being precursors of macrophages under certain conditions, a model which is very widespread for studying the metabolism of prostaglandins.
Indeed, the phorbol esters (10 nM PMA) cause within 24 h 00 min the differentiation of the promonocyte line U937 into macrophages; this differentiation is accompanied by the induction of 15-PGDH. (Tong and Tai, Biochim Biophys Acta, 2000; 1497: 61-68).
Moreover, stimulation of these macrophages by LPS (lipopolysaccharide extracted from the bacterial wall) induces (at 100 ng/ml) in 6 h 00 min PGHS-2 (or COX-2), an enzyme responsible (in the same way as COX-1) for the synthesis of PGH2, a precursor (inter alia) via PGFS, of PGF2α (Arias-Negrete et al., 1995. Biochem Biophys Res Commun, 208(2), 582-589).
In a 1st stage, macrophage precursors are cultured in a suitable medium, in the presence of a compound stimulating their differentiation and the induction of 15-PGDH, and then the production of prostaglandins by these cells is stimulated, for example by LPSs in the form of an extract or by purified LPSs; this 2nd stage is performed in the presence or otherwise of the compound to be tested. The concentrations of prostaglandins, in particular of PGF2α, obtained in the presence of the 15-PGDH inhibiting compound to be tested are compared to that of the control containing only the 15-PGDH inducer, it being possible to carry out this measurement by any method known to a person skilled in the art, in particular by immunoenzymatic assay. […]
All the wells will contain the same final quantity of DMSO.
Immediate evaluation of the quantity of PGF2α secreted by the cells (50 μl) under different conditions (molecules or controls) using an immunoenzymatic assay kit (Cayman ref. 516011). […]

[4] = protocol of Example 3, read-out: Inhibition of 15-PGDH at 50 μM

Compound	inhibition at 50 µM [1] [%]	inhibition at 50 µM ([2]; read-out: % Inhibition 15-PGDH) [%]	IC50 [1] [µM]	inhibition at 50 µM [2, 4] [%]	IC50 ([2]; protocol of Example 3) [µM]	PGF2α secreted, % of the control (LPS control) [3]
Nc1c(Cl)nc(-c2ccccc2)nc1Cl [Molecule A, 5-amino-4,6-dichloro-2-phenylpyrimidine]	5	43				
O=C(Cc1nnn(-c2ccccc2)n1)c1ccccc1 [Compound 1, 1-phenyl-2-(2-phenyl-2H-tetrazol-5-yl)ethanone]			> 75	70		+16%
Cc1ccc(NC(=O)Cn2nnc(-c3cccc(C(F)(F)F)c3)n2)cc1 [Compound R29A, N-(4-methylphenyl)-2-{5-[3-(trifluoromethyl)phenyl]-2H-tetrazol-2-yl}acetamide]			> 75		30	+46%

More lines, main results first:

inhibition at 50 µM [1] [%]	inhibition at 50 µM ([2]; read-out: % Inhibition 15-PGDH) [%]	IC50 [1] [µM]	inhibition at 50 µM [2, 4] [%]	IC50 ([2]; protocol of Example 3) [µM]	Compound	PGF2α secreted, % of the control (LPS control) [3]
		> 75	60	55	COc1ccccc1NC(=O)Cn1nnc(-c2ccccc2)n1 [Compound 4, N-(2-methoxyphenyl)-2-(5-phenyl-2H-tetrazol-2-yl)acetamide]	+6%
10	57				O=C(Nc1ncc2c(n1)CC(c1ccccc1Cl)CC2=O)c1ccccc1 (centres unmarked) [Molecule B, N-[7-(2-Chlorophenyl)-5-oxo-5,6,7,8-tetrahydroquinazolin-2-yl]benzamide]	
